Reference: article PMC8348983 (International Journal of Molecular Sciences, 2021)
“Also recorded” adds a separate entry of the source. Read-outs that look alike come from different tables or passages of the source.

Tests used:
[1] = target: POP (prolyloligopeptidase) (Homo sapiens, UniProt P48147); test: POP inhibition assay; type: biochemical; conditions: bounds marked f: highest tested concentration due to low solubility in buffer; read-out: IC50, POP ± SEM
Method: The previously applied procedure was used. Detailed description of the assay can be found in Supplementary Materials.
POP (EC 3.4.21.26) was dissolved in phosphate-buffered saline (PBS; 0.01 M Na/K phosphate buffer, […]
The assay was performed in standard polystyrene 96-well microplates with a flat and clear bottom.
Stock solutions of tested compounds were prepared in DMSO (10 mM). Dilutions (10−3 to 10−7 M) were prepared from the stock solution with deionized H2O; the control was performed with the same DMSO concentration. POP substrate, (Z)-Gly-Pro-p-nitroanilide, was dissolved in 50% 1,4-dioxane (5 mM). For each reaction, PBS (170 μL), tested compound (5 μL), and POP (5 μL) were incubated for 5 min at 37 °C. Then, substrate (20 μL) was added, and the microplate was incubated for 30 min at 37 °C. The formation of p-nitroanilide, directly proportional to the POP activity, was measured […]
Synergy 2, BioTek Instruments, Winooski, VT). The inhibition potency of tested compounds was calculated by nonlinear regression analysis and was expressed as an IC50 value (concentration of inhibitor which causes 50% POP inhibition). […]

[2] = target: T1, human recombinant AChE (Homo sapiens, UniProt P22303); test: biochemical; type: biochemical; conditions: for IC50: mean ± SEM of three independent measurements, each in triplicate, read-out: IC50, hAChE ± SEM; for inhibition at 100 µM: tested at 100 µM compound concentration, read-out: %Inhibition hAChE ± SEM
T1 sequence (P22303 32-614): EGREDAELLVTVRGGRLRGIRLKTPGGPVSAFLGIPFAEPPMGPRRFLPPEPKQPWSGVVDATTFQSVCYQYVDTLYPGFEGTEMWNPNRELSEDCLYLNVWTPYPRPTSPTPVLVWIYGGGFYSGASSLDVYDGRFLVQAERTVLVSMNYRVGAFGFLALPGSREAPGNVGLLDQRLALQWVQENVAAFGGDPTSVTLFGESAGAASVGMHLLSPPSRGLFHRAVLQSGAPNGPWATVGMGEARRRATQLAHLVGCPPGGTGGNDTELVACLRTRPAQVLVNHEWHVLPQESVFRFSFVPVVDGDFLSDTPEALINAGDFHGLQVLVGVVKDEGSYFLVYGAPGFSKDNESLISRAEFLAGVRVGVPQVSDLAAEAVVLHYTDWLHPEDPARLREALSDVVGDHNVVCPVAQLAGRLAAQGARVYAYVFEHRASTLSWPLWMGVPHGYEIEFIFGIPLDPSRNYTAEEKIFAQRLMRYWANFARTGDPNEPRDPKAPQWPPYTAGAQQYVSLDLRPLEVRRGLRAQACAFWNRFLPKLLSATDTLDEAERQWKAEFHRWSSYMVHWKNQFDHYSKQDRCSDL

[3] = target: T2, human plasma BChE (Homo sapiens, UniProt P06276); test: biochemical; type: biochemical; conditions: for IC50: mean ± SEM of three independent measurements, each in triplicate, read-out: IC50, hBuChE ± SEM; for SI for hBuChE: ratio hAChE IC50/hBuChE IC50; for inhibition at 100 µM: tested at 100 µM compound concentration, read-out: % Inhibition hBuChE ± SEM
T2 construct: was used as a source of BChE and was prepared from heparinized human blood; from tissue; host or cells: human plasma from heparinized human blood
T2 sequence (P06276 29-602): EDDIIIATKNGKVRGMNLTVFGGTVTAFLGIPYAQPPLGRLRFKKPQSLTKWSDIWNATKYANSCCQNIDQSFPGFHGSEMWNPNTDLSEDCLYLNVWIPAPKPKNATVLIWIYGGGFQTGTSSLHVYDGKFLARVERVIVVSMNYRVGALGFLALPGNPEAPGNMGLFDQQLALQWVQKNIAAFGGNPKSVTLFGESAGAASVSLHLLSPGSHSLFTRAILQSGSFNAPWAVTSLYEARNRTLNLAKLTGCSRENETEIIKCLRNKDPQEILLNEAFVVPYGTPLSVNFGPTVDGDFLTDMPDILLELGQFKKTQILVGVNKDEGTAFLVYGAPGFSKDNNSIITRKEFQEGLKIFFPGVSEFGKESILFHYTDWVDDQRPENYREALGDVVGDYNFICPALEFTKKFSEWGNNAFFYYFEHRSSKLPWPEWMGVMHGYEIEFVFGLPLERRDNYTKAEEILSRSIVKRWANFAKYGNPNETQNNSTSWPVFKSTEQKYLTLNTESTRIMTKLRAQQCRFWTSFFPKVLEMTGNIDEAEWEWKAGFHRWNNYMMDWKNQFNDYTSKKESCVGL

[4] = target: T1, human recombinant AChE; set-up: method as in PMID 32455879; conditions: template alkaloids, Figure 1; read-out: IC50,hAChE; cited from earlier work

Sequence of POP (prolyloligopeptidase) (P48147 whole entry): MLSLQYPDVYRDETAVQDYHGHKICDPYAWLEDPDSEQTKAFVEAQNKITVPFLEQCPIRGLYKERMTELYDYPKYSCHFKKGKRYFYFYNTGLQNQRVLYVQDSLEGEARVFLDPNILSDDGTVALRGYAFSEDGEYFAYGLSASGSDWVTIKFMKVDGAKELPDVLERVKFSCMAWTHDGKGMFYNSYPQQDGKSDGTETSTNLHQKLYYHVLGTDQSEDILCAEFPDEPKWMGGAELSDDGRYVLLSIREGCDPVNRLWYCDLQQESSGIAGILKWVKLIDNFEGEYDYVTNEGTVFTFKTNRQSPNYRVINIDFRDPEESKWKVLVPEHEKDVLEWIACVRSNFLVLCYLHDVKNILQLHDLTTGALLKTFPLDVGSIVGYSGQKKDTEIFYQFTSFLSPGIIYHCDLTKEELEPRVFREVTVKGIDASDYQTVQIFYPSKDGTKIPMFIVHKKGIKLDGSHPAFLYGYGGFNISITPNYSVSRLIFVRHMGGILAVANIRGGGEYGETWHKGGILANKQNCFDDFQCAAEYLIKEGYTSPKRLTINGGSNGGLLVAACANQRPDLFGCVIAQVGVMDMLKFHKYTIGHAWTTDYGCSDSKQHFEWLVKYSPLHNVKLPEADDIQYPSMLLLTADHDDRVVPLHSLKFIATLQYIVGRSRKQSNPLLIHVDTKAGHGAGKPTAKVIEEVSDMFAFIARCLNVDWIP

SMILES | IC50 [1] | IC50 [2] | inhibition at 100 µM [2] | IC50 [3] | SI for hBuChE [3] | inhibition at 100 µM [3] | hAChE inhibition potency (in words) ([2]; screening at 100 µM) | hBuChE inhibition potency (in words) ([3]; screening at 100 µM) | IC50 [4]
COc1cc(CNCCc2ccc(O)cc2)ccc1OCc1ccccc1 [Compound 1, N-(4-benzyloxy-3-methoxybenzyl)-2-(4-hydroxyphenyl)ethan-1-amine] | 186 ± 14 µM | > 100 µM | 30.4 ± 2.1% | 360 ± 30 nM | >277 | 98.7 ± 0.3% | – | – | –
COc1ccc(CNCCc2ccc(O)cc2)cc1OCc1ccccc1 [Compound 2, N-(3-benzyloxy-4-methoxybenzyl)-2-(4-hydroxyphenyl)ethan-1-amine] | > 79 µM | > 100 µM | 35.8 ± 1.2% | 290 ± 20 nM | >348 | 97.7 ± 0.5% | – | – | –
C=CCN(CCc1ccc(O)cc1)Cc1ccc(OCc2ccccc2)c(OC)c1 [Compound 3, N-allyl-N-(4-benzyloxy-3-methoxybenzyl)-2-(4-hydroxyphenyl)ethan-1-amine] | > 200 µM | > 100 µM | 20.8 ± 0.9% | 610 ± 40 nM | >163 | 96.8 ± 1.1% | – | – | –
C=CCN(CCc1ccc(O)cc1)Cc1ccc(OC)c(OCc2ccccc2)c1 [Compound 4, N-allyl-N-(3-benzyloxy-4-methoxybenzyl)-2-(4-hydroxyphenyl)ethan-1-amine] | > 79 µM | > 100 µM | 45.2 ± 2.4% | 250 ± 10 nM | >394 | 97.9 ± 0.6% | – | – | –
C=CCOc1ccc(CCN(CC=C)Cc2ccc(OCc3ccccc3)c(OC)c2)cc1 [Compound 5, N-allyl-N-(4-benzyloxy-3-methoxybenzyl)-2-(4-allyloxyphenyl)ethan-1-amine] | – | > 100 µM | 3.4 ± 0.5% | > 100000 nM | – | 38.9 ± 0.9% | no inhibition potency | no inhibition potency; also recorded: inactive | –
COc1cc(CNCCc2ccccc2)ccc1OCc1ccccc1 [Compound 7, N-(4-benzyloxy-3-methoxybenzyl)-2-phenylethan-1-amine] | – | > 100 µM | 23.4 ± 2.5% | 1280 ± 50 nM | >78 | 94.5 ± 0.9% | – | – | –
COc1ccc(CNCCc2ccccc2)cc1OCc1ccccc1 [Compound 8, N-(3-benzyloxy-4-methoxybenzyl)-2-phenylethan-1-amine] | – | > 100 µM | 12.6 ± 0.5% | 1100 ± 50 nM | >90 | 96.6 ± 0.4% | – | – | –
C=CCN(CCc1ccccc1)Cc1ccc(OCc2ccccc2)c(OC)c1 [Compound 9, N-allyl-N-(4-benzyloxy-3-methoxybenzyl)-2-phenylethan-1-amine] | – | > 100 µM | 18.8 ± 1.9% | 5190 ± 280 nM | >19 | 74.9 ± 2.4% | – | – | –
C=CCN(CCc1ccccc1)Cc1ccc(OC)c(OCc2ccccc2)c1 [Compound 10, N-allyl-N-(3-benzyloxy-4-methoxybenzyl)-2-phenylethan-1-amine] | – | 21.5 µM | 72.4 ± 1.1% | 1170 ± 40 nM | 18 | 92 ± 2.4% | – | – | –
COc1ccc(CCNCc2ccc(OCc3ccccc3)c(OC)c2)cc1 [Compound 11, {[4-(benzyloxy)-3-methoxyphenyl]methyl}[2-(4-methoxyphenyl)ethyl]amine] | – | > 100 µM | 27.9 ± 0.7% | 2390 ± 270 nM | >41 | 93.5 ± 0.3% | – | – | –
COc1ccc(CCNCc2ccc(OC)c(OCc3ccccc3)c2)cc1 [Compound 12, N-(3-benzyloxy-4-methoxybenzyl)-2-(4-methoxyphenyl)ethan-1-amine] | – | > 100 µM | 0% | 1120 ± 110 nM | >89 | 94.6 ± 0.6% | – | – | –
C=CCN(CCc1ccc(OC)cc1)Cc1ccc(OCc2ccccc2)c(OC)c1 [Compound 13, N-allyl-N-(4-benzyloxy-3-methoxybenzyl)-2-(4-methoxyphenyl)ethan-1-amine] | – | > 100 µM | 32.7 ± 1.6% | 2720 ± 500 nM | >37 | 90.9 ± 1.5% | – | – | –
C=CCN(CCc1ccc(OC)cc1)Cc1ccc(OC)c(OCc2ccccc2)c1 [Compound 14, N-allyl-N-(3-benzyloxy-4-methoxybenzyl)-2-(4-methoxyphenyl)ethan-1-amine] | – | 37.7 µM | 60.9 ± 0.4% | 380 ± 10 nM | 98 | 95.8 ± 0.9% | – | – | –
CCOc1cc(CNCCc2ccc(O)cc2)ccc1OC [Compound 15, N-(3-ethoxy-4-methoxybenzyl)-2-(4-hydroxyphenyl)ethan-1-amine] | – | > 100 µM | 25.8 ± 1.3% | 15100 ± 2340 nM | >6 | 75.3 ± 0.6% | – | – | –
C=CCN(CCc1ccc(O)cc1)Cc1ccc(OC)c(OCC)c1 [Compound 16, N-allyl-N-(3-ethoxy-4-methoxybenzyl)-2-(4-hydroxyphenyl)ethan-1-amine] | – | > 100 µM | 28.3 ± 1.1% | 1210 ± 80 nM | >82 | 91.7 ± 0.4% | – | – | –
C=CCOc1ccc(CCN(CC=C)Cc2ccc(OC)c(OCC)c2)cc1 [Compound 17, N-allyl-N-(3-ethoxy-4-methoxybenzyl)-2-(4-allyloxyphenyl)ethan-1-amine] | – | > 100 µM | 29.3 ± 3.9% | 9890 ± 1370 nM | – | 77 ± 1% | – | – | –
CCOc1cc(CNCCc2ccccc2)ccc1OC [Compound 18, N-(3-ethoxy-4-methoxybenzyl)-2-phenylethan-1-amine] | – | > 100 µM | 0% | 41100 ± 2600 nM | >2 | 60 ± 1.6% | – | – | –
C=CCN(CCc1ccccc1)Cc1ccc(OC)c(OCC)c1 [Compound 19, N-allyl-N-(3-ethoxy-4-methoxybenzyl)-2-phenylethan-1-amine] | – | > 100 µM | 5.9 ± 2.1% | 4630 ± 480 nM | >22 | 80.2 ± 0.2% | – | – | –
CCOc1cc(CN(CCc2ccccc2)Cc2ccccc2)ccc1OC [Compound 20, N-benzyl-N-(3-ethoxy-4-methoxybenzyl)-2-phenylethan-1-amine] | – | > 100 µM | 49.5 ± 0.8% | 690 ± 30 nM | >145 | 82.5 ± 1% | – | – | –
COc1cc(CN(C)CCc2ccc(O)cc2)c(-c2cccc3c2N(C)CC3)cc1OC [carltonine A] | – | – | – | – | – | – | – | – | > 100 µM
CN(CCc1ccc(O)cc1)Cc1cc2c(cc1-c1cccc3c1N(C)CC3)OCO2 [carltonine B] | – | – | – | – | – | – | – | – | > 100 µM
